Common to all, as to format: in vivo, albino rats
Test [1] relates to gastric ulcers induced by aspirin, ethanol, stress and pylorus ligation. Description: Antigastric ulcer screening by four different models (statements in words). Conditions: summary statement. An excerpt:
The compounds taken under study for antigastric ulcer screening by four different models were selected using experimental albino rats: • 1. Aspirin induced gastric ulceration • 2. Pylorus ligated gastric ulceration • 3. Ethanol induced gastric ulceration • 4. Stress induced gastric ulceration
The commercially available drug ranitidine (sigma), Omeprazole (sigma) and sucralfate (Merck) were used as reference standard in experimental models. The Tween-80 (SD fine chemicals) was used as vehicle for the administration of the drug, which is used as control.

The test system of the next test is Pylorus ligated rats. In words: Pylorus ligated ulcers. The conditions noted are these: 25 mg/kg, 4 hours after pylorus ligation. The procedure, abridged:
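Albino rats, fasted 48 h, dosed with test compound (25 mg/kg, or 50, 25, 15, 10 and 5 mg/kg) or ranitidine 50 mg/kg in 1% Tween 80 vehicle. Pylorus ligated under ether 1 h post-dose. Gastric contents collected 4 h later, centrifuged, and total acid titrated with 0.01N NaOH.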

Test [2] concerns acetyl salicylic acid induced gastric lesions. Description: Acetyl salicylic acid (aspirin) induced gastric ulcer. Further details: Ulcer index Mean(SE): scale not given here. The conditions noted are these: rats, 25 mg/kg per orally daily for five days, aspirin 200 mg/kg. The method in brief:
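Rats in groups of 6 were dosed orally once a day for five days with test compounds suspended in 1% Tween 80. A 1% Tween 80 control group and a ranitidine 50 mg/kg group were included. Aspirin at 200 mg/kg was given orally 30 min after each dose. After a 24 hour fast, the rats were killed by cervical dislocation. Stomachs were opened along the greater curvature, rinsed with lukewarm saline, examined under a dissecting microscope and scored for ulcer index.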

Test [3] concerns ethanol induced gastric ulcers. Description: Ethanol induced ulcers. Conditions: rats, 25 mg/kg, ethanol challenge; for Acidity Total mEg / Gastric content / pH: 4 hours after pylorus ligation. The procedure, abridged:
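Rats in groups of 6, fasted 48 h, given Tween 80 (1%) vehicle, reference drugs, or test compounds at 25 mg/kg; lesions induced 1 h after ethanol challenge. Pylorus ligated under ether; 4 h later gastric contents centrifuged and total acid titrated with 0.01N NaOH.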

Test [4] concerns gastric ulceration in cold restraint rats. Description: Cold restraint (stress) induced ulcers. On the set-up: Ulcer index Mean(SE): scale not given here. Conditions: rats, 25 mg/kg per orally, 4° C. for 2 hours. The procedure, abridged: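 Albino rats, fasted 48 h with free water, dosed orally with compound at 25 mg/kg or at 50, 25, 15, 10 and 5 mg/kg in 1% Tween 80 vehicle. Water removed 1 h before restraint at 4° C for 2 h. Sacrificed 2 h after stress; stomachs opened along greater curvature and scored as mean ulcer index.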

On to `COC(=O)C1OC(Oc2ccc3c(=O)cc(-c4ccccc4)oc3c2)C(O)C(O)C1O` (stereo not drawn) [CGL, 3,4,5-trihydroxy-6-(4-oxo-2-phenyl-4-H-chromen-7-yoloxy) tetrahydro-pyran-2-carboxylicacid methyl ester], for which, in test [1], the “antiulcer activity (in words)” value was “very good activity”. In the test with Pylorus ligated rats, the “Acidity Total mEg” value is listed as 40.00 (±1.15) m Eg, the Gastric content was 4.83 (±0.44), the Inhibition % worked out at 60.17% and the “Ulcer index Mean(SE)” value is listed as 19.96 (±6.66). Also, in the test with Pylorus ligated rats, the pH is 3.08 (±0.22). In test [2], the Inhibition % worked out at 70.46% and the “Ulcer index Mean(SE)” value was 13.33. For the same compound, in test [3], the Inhibition % is recorded as 62.50%, the “Ulcer index Mean(SE)” value is given as 25.00 (±2.88), the “Acidity Total mEg” value is recorded as 39.00 (±1.52) mEg and the Gastric content was 4.60 (±0.20). Besides, the pH in test [3] is reported as 3.91 (±0.21). In addition, in test [4], the Inhibition % is recorded as 50.22% and the “Ulcer index Mean(SE)” value worked out at 20.00.

Usually inhibition stands for the share of the control response that was lost under treatment. For `O=c1cc(-c2ccccc2)oc2cc(OCCCCN3CCOCC3)cc(O)c12` [CHM-3, 5-Hydroxy-7-(4-morpholin-4-yl-butoxy)-2-phenyl chromen-4-one], the “Acidity Total mEg” value with Pylorus ligated rats is 44.10 (±2.20) m Eg; in test [3], 37.10 (±0.60) mEg. Besides, the Gastric content in the test with Pylorus ligated rats is 2.24 (±0.22); in test [3] it was 3.8 (±0.30). Moreover, the “Ulcer index Mean(SE)” value in the test on Pylorus ligated rats was 27.46 (±3.00); in test [2], 21.77; in test [3] it was 42.50 (±3.81); in test [4], 19.28. For the same compound, the pH with Pylorus ligated rats is 3.41 (±0.16); in test [3], 4.16 (±0.12). In addition, the inhibition at 25 mg/kg in the test with Pylorus ligated rats (Rattus norvegicus) turned out to be 45.2%; in test [2] (Rattus norvegicus, po, 120 h), 51.7%; in test [3] (Rattus norvegicus) it was 36.2%; in test [4] (Rattus norvegicus, po), 52.6%.

As for `COc1c(OC2OC(CO)C(O)C(O)C2O)cc2oc(-c3ccccc3)cc(=O)c2c1O` (stereo not drawn) [OA-G, 5-Hydroxy-6-methoxy-2-phenyl-7-(3,4,5-trihydroxy-6-hydroxyrnethyl-tetrahydro-pyran-2-yloxy)-chromen-4-one], in the test on Pylorus ligated rats, the “Acidity Total mEg” value is listed as 41.66 (±1.66) m Eg, the Inhibition % is 30.16%, the “Ulcer index Mean(SE)” value is 35.00 (±2.88) and the pH was 3.20 (±0.15). Besides, in test [2], the Inhibition % is listed as 32.05% and the “Ulcer index Mean(SE)” value came out at 30.66. In test [3], the Inhibition % stood at 20.00%, the “Ulcer index Mean(SE)” value was 53.33 (±6.66), the “Acidity Total mEg” value is on record as 36.66 (±0.88) mEg and the Gastric content is listed as 4.33 (±0.11). In addition, the pH in test [3] is 4.31 (±0.11). Also, in test [4], the Inhibition % came to 19.52% and the “Ulcer index Mean(SE)” value is recorded as 32.33.
